Laboratory results as given in US4508727A, “Antihypertensive 2-oxo-imidazolidine derivatives” (Tanabe Seiyaku Co., Ltd., priority 1982, dated 1985).

Legend:
[1] = system: ACE; assay: ACE-inhibitory activity in vivo, pressor response to angiotensin I, intravenous, rats; parameters: species or system rat; conditions: normotensive rats, 10 γ/kg intravenously, angiotensin I 300 ng/kg
Procedure: (§1) Normotensive rats and normotensive cats were anesthetized with urethane (1.2 g/kg, s.c.), and angiotensin I (rat: 300 ng/kg, cat: 600 ng/kg) was injected into the jugular vein of the rats and the femoral vein of the cats. The pressor response to angiotensin I was measured with a pressure transducer connected to the carotid artery. Then, a test compound was injected intravenously thereto at a dose of 10 γ/kg, and angiotensin I (rat: 300 ng/kg, cat: 600 ng/kg) was further injected intravenously at intervals. The ACE-inhibitory activity of the test compound was estimated by dose-response curve measured from the pressor responses to angiotensin I which were obtained before and after intravenous injection of the test compound.

[2] = system: ACE; assay: ACE-inhibitory activity in vivo, pressor response to angiotensin I, intravenous, cats; parameters: species or system cat; conditions: normotensive cats, 10 γ/kg intravenously, angiotensin I 600 ng/kg
Procedure: as §1

[3] = system: mice; assay: toxicity, intravenous administration to mice; assay type: in vivo; conditions: 1000 mg/kg intravenously, 7 days after the administration
Procedure: Further, the toxicity of the compound (I) of the invention is remarkably low. For example, when (4S)-1-benzyl-3-{(2 S)-2-[N-((1S)-1-carboxy-3-phenylpropyl)amino]propionyl}-2-oxo-imidazolidine-4-carboxylic acid and (4S)-1-methyl-3-{(2S)-2-[N-((1S)-1-carboxy-n-nonyl)amino]propionyl}-2-oxo- imidazolidine-4-carboxylic acid were administered intravenously to mice at the dose of 1000 mg/kg, no mice died 7 days after the administration. Thus, angiotensin-dependent hypertension in mammals can be alleviated by administration of the compound (I) of the present invention or a pharmaceutically acceptable salt thereof.

[4] = molecular target: T1, angiotensin-converting enzyme (ACE) isolated from pig's renal cortex (Sus scrofa, UniProt F1RRW5); assay: ACE-inhibitory activity in vitro; assay type: biochemical; conditions: substrate hippuryl-histidyl-leucine, 37° C., 20 minutes
T1 construct: isolated from pig's renal cortex; from tissue; host or cells: pig renal cortex
T1 sequence (F1RRW5 34-1309): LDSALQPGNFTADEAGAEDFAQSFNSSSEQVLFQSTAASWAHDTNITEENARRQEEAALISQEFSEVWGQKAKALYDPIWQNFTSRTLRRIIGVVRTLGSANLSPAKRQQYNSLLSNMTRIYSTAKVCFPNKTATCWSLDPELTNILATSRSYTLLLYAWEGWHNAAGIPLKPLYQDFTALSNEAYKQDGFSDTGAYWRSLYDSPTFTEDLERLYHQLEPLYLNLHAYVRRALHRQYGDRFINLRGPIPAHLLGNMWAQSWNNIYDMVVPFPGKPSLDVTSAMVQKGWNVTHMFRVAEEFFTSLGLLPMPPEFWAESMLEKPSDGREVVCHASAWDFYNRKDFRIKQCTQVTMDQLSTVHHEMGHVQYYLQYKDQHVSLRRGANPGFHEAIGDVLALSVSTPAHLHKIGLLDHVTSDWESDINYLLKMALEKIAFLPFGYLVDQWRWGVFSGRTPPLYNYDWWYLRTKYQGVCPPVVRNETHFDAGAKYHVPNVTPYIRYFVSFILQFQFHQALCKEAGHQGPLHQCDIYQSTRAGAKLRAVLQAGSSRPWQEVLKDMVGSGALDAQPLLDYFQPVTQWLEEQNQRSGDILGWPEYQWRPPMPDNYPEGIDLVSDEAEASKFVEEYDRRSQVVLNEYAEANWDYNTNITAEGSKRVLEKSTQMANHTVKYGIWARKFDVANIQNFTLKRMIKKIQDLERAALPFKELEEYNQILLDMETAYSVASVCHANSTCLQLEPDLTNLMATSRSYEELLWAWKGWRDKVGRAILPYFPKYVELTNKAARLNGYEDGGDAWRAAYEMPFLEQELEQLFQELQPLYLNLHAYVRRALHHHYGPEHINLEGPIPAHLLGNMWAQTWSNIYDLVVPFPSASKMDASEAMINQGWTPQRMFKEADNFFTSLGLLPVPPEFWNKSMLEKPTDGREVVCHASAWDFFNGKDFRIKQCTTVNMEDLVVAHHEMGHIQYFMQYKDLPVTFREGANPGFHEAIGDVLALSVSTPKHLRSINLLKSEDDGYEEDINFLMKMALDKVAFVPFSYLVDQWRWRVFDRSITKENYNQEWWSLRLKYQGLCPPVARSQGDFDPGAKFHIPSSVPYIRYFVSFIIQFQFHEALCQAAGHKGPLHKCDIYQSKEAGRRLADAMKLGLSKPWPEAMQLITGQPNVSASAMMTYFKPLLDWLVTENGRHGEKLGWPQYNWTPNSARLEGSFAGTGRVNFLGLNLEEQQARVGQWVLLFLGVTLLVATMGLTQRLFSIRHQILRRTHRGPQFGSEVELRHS
Procedure: 50 μl of a solution containing 0.01 mole/liter of hippuryl-histidyl-leucine (substrate) and 0-100 μl of a test compound solution were added to 300 μl of a 0.2M tris-hydrochloric acid buffer solution containing 0.2 mole/liter of sodium chloride. The total volume of said mixture was adjusted to 450 μl with water. Then, 50 μl of angiotensin-converting enzyme (ACE) isolated from pig's renal cortex were added to the mixture, and the mixture was allowed to stand at 37° C. for 20 minutes. The amount of histidyl-leucine produced from the substrate by the action of ACE was assayed microbiologically by the use of Leuconostoc mesenteroides P-60, and the ACE-inhibitory activity of the test compound was estimated therefrom.

[5] = system: ACE; assay: ACE-inhibitory activity in vivo, pressor response to angiotensin I, oral, rats; parameters: species or system rat; conditions: for ACE-inhibitory activity (%): normotensive rats, 1 mg/kg orally, angiotensin I 300 ng/kg i.v.
Procedure: Normotensive rats were anesthetized with urethane (1.2 g/kg, s.c.), and angiotensin I (300 ng/kg) was injected into the jugular vein of the rats. The pressor response to angiotensin I was measured with a pressure transducer connected to the carotid artery. Then, a test compound was administered orally thereto at a dose of 1 mg/kg, and angiotensin I (300 ng/kg) was further injected intravenously at intervals. The ACE-inhibitoryactivity of the test compound was estimated from the pressor responses to angiotensin I which were obtained before and after oral administration of the test compound.

[6] = system: spontaneously hypertensive rats (SHR); assay: Hypotensive activity in SHR; assay type: in vivo, rat; conditions: 3 mg/kg orally; for hypotensive activity, Blood pressure (b): measured after administration of the test compound / hypotensive activity, Blood pressure (a): measured before administration of the test compound / Duration of action: SHR; for hypotensive activity, Blood pressure (b): measured after administration of the test compound / hypotensive activity, Blood pressure (a): measured before administration of the test compound: systolic
Procedure: A test compound suspended in an aqueous carboxymethyl-cellulose solution was administered orally (dose: 3 mg/kg) to spontaneously hypertensive rats (SHR) fasted overnight. The systolic blood pressure of the rats was measured by the tail plethysmographic technique (The Journal of Laboratory and Clinical Medicine 78 (1971), page 957). The hypotensive activity of the test compound was estimated from the decreased level of blood pressure.

Which results are given for `CCCCCCCC[C@H](N[C@@H](C)C(=O)N1C(=O)N(C)C[C@H]1C(=O)O)C(=O)O` [Example 5, (4S)-1-methyl-3-{(2S)-2-[N-((1S)-1-carboxy-n-nonyl)amino]propionyl}-2-oxo-imidazolidine-4-carboxylic acid]?
ACE-inhibitory activity (%) [1]: 47 ± 4%; ACE-inhibitory activity (%) [2]: 36 ± 5%; mortality (mice died) [3]: no mice died

What does the source list for `C[C@H](N[C@@H](CCc1ccccc1)C(=O)O)C(=O)N1C(=O)N(C)C[C@H]1C(=O)O` [Example 4, (4S)-1-methyl-3-{(2S)-2-[N-((1S)-1-carboxy-3-phenylpropyl)amino]propionyl}-2-oxo-imidazolidine-4-carboxylic acid]?
ACE-inhibitory activity (%) [1]: 56 ± 3%; ACE-inhibitory activity (%) [2]: 40 ± 6%

How did the IC50 [4] turn out when `CC(C)C[C@H](N[C@@H](C)C(=O)N1C(=O)N(Cc2ccccc2)C[C@H]1C(=O)O)C(=O)O` [Example 12-(2), (4S)-1-benzyl-3-{(2S)-2-[N-((1S)-1-carboxy-isopentyl)amino]propionyl}-2-oxo-imidazolidine-4-carboxylic acid] was run?
Its IC50 is 2.1 nM.

`CCCCCCCC[C@H](N[C@@H](C)C(=O)N1C(=O)N(Cc2ccccc2)C[C@H]1C(=O)O)C(=O)O` [Example 9, (4S)-1-benzyl-3-{(2S)-2-[N-((1S)-1-carboxy-n-nonyl)amino]propionyl}-2-oxo-imidazolidine-4-carboxylic acid] was tested. Which IC50 [4] did it give?
Its IC50 is 1.5 nM.

With `CC[C@H](N[C@@H](CCc1ccccc1)C(=O)O)C(=O)N1C(=O)N(Cc2ccccc2)C[C@H]1C(=O)O` [Example 17-(2), (4S)-1-benzyl-3-{(2S)-2-[N-((1S)-1-carboxy-3-phenylpropyl)amino]-n-butyryl}-2-oxo-imidazolidine-4-carboxylic acid] as the molecule, how does the IC50 [4] read?
Its IC50 is 2.3 nM.

Which IC50 [4] does the source give for `C[C@H](N[C@@H](Cc1ccccc1)C(=O)O)C(=O)N1C(=O)N(Cc2ccccc2)C[C@H]1C(=O)O` [Example 14-(3), (4S)-1-benzyl-3-{(2S)-2-[N-((1S)-1-carboxy-2-phenylethyl)amino]propionyl}-2-oxo-imidazolidine-4-carboxylic acid] here?
Its IC50 is 11 nM.

Which “ACE-inhibitory activity (%)” value [5] does the source give for `CCOC(=O)[C@H](CCc1ccccc1)N[C@@H](C)C(=O)N1C(=O)N(C)C[C@H]1C(=O)O` [Example 1, (4S)-1-methyl-3-{(2S)-2-[N-((1S)-1-ethoxycarbonyl-3-phenylpropyl)amino]propionyl}-2-oxo-imidazolidine-4-carboxylic acid] here?
Its value is 60 ± 6%.

And the “inhibition of ACE-activity” value ([5]; rats administered angiotensin I intravenously, 1.0 mg/kg)?
Its value is “about 60%”.

What about the “hypotensive activity, Blood pressure (b): measured after administration of the test compound” value [6] of the same molecule?
Its value is 136 ± 4 mm Hg.

And the “hypotensive activity, Blood pressure (a): measured before administration of the test compound” value [6]?
The value was 181 ± 3 mm Hg.

And the Duration of action ([6]; 3 mg/kg)?
The Duration of action was “more than 6 hours”.

What about the Duration of action ([6]; listed as CH3, CH3, C6 H5 (CH2)2, C2 H5, 3 mg/kg) of the same molecule?
Its Duration of action is greater than 6 h.

And the “decrease in blood pressure” value ([6]; spontaneously hypertensive rats)?
Its value is “about 45 mmHg”.

For `CCCCCCCC[C@H](N[C@@H](CC)C(=O)N1C(=O)N(Cc2ccccc2)C[C@H]1C(=O)O)C(=O)O` [Example 15-(3), (4S)-1-benzyl-3-{(2S)-2-[N-((1S)-1-carboxy-n-nonyl)amino]-n-butyryl}-2-oxo-imidazolidine-4-carboxylic acid], which IC50 [4] is on record?
The IC50 was 1.4 nM.

`CC(C)CC[C@H](N[C@@H](C)C(=O)N1C(=O)N(Cc2ccccc2)C[C@H]1C(=O)O)C(=O)O` [Example 13-(2), (4S)-1-benzyl-3-{(2S)-2-[N-((1S)-1-carboxy-4-methyl-n-pentyl)amino]propionyl}-2-oxo-imidazolidine-4-carboxylic acid] was tested. Which IC50 [4] did it give?
The IC50 was 3.3 nM.

Which “ACE-inhibitory activity (%)” value [5] does the source give for `CCCCCCCC[C@H](N[C@@H](C)C(=O)N1C(=O)N(C)C[C@H]1C(=O)O)C(=O)OCC` [Example 3, (4S)-1-methyl-3-{(2S)-2-[N-((1S)-1-ethoxycarbonyl-n-nonyl)amino]propionyl}-2-oxo-imidazolidine-4-carboxylic acid] here?
The value was 56 ± 7%.

What about the Duration of action [6] of the same molecule?
The Duration of action was greater than 6 h.

What about the “hypotensive activity, Blood pressure (b): measured after administration of the test compound” value [6] of the same molecule?
Its value is 143 ± 4 mm Hg.

And the “hypotensive activity, Blood pressure (a): measured before administration of the test compound” value [6]?
Its value is 174 ± 5 mm Hg.

Which IC50 [4] does the source give for `C[C@H](N[C@@H](CCc1ccccc1)C(=O)O)C(=O)N1C(=O)N(Cc2ccccc2)C[C@H]1C(=O)O` [Example 8, (4S)-1-benzyl-3-{(2S)-2-[N-((1S)-1-carboxy-3-phenylpropyl)amino]propionyl}-2-oxo-imidazolidine-4-carboxylic acid] here?
Its IC50 is 1.7 nM.

What about the “ACE-inhibitory activity (%)” value [1] of the same molecule?
Its value is 33 ± 4%.

What about the “ACE-inhibitory activity (%)” value [2] of the same molecule?
The value was 36 ± 8%.

And the “mortality (mice died)” value [3]?
Its value is “no mice died”.
